Test results from US11179364B2, “Licofligozin for the treatment of non-alcoholic steatohepatitis” (NOVARTIS AG, priority 2017, dated 2021).
Where two headings read alike, the source gives them in different places.

What was measured:
SGLT2 = target: T1, SGLT2 (Homo sapiens, UniProt P31639); experiment: SGLT2 inhibition; type: biochemical
T1 sequence (P31639 1-672): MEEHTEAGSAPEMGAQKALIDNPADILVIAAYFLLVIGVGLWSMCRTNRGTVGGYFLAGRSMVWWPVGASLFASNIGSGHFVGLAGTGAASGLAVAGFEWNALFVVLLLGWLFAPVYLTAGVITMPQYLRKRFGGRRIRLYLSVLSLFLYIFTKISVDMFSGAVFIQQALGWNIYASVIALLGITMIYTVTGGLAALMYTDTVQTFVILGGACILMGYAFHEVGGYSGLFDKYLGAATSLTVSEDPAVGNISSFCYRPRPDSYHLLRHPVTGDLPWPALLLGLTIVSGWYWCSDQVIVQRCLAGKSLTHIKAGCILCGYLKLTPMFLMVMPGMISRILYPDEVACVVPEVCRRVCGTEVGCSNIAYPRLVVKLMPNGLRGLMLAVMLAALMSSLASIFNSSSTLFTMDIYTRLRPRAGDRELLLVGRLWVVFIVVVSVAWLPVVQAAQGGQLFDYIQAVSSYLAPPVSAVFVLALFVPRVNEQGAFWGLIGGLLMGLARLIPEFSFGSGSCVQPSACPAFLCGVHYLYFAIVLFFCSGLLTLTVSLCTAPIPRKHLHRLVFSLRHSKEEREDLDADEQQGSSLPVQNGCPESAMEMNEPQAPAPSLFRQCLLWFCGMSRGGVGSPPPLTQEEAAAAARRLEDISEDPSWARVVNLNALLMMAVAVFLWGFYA

SGLT1 = target: T2, SGLT1 (Homo sapiens, UniProt P13866); experiment: SGLT1 inhibition; type: biochemical
T2 sequence (P13866 1-664): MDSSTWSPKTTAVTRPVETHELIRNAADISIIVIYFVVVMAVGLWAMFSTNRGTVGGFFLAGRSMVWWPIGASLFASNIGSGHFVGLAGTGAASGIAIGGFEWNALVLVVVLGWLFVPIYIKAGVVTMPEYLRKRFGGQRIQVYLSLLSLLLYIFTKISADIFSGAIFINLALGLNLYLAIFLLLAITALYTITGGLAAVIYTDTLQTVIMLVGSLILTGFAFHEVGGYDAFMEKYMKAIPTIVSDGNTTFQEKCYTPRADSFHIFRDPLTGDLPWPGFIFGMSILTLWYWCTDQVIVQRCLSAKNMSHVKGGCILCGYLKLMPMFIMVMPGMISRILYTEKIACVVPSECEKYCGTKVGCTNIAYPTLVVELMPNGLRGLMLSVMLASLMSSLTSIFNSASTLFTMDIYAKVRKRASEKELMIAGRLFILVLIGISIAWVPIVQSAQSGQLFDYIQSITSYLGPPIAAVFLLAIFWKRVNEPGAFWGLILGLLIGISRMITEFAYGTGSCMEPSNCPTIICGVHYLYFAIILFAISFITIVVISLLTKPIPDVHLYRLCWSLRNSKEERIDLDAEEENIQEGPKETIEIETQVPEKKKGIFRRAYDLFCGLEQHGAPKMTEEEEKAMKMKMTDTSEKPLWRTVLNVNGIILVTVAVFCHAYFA

[1] = tested on: other glucose transporters (GLUTs); experiment: Selectivity against other glucose transporters; type: biochemical
hERG = hERG (Homo sapiens, UniProt Q12809); experiment: hERG inhibitory activity; type: biochemical; details: at the maximal soluble concentration (16 μM)
hERG, sequence (Q12809 whole entry): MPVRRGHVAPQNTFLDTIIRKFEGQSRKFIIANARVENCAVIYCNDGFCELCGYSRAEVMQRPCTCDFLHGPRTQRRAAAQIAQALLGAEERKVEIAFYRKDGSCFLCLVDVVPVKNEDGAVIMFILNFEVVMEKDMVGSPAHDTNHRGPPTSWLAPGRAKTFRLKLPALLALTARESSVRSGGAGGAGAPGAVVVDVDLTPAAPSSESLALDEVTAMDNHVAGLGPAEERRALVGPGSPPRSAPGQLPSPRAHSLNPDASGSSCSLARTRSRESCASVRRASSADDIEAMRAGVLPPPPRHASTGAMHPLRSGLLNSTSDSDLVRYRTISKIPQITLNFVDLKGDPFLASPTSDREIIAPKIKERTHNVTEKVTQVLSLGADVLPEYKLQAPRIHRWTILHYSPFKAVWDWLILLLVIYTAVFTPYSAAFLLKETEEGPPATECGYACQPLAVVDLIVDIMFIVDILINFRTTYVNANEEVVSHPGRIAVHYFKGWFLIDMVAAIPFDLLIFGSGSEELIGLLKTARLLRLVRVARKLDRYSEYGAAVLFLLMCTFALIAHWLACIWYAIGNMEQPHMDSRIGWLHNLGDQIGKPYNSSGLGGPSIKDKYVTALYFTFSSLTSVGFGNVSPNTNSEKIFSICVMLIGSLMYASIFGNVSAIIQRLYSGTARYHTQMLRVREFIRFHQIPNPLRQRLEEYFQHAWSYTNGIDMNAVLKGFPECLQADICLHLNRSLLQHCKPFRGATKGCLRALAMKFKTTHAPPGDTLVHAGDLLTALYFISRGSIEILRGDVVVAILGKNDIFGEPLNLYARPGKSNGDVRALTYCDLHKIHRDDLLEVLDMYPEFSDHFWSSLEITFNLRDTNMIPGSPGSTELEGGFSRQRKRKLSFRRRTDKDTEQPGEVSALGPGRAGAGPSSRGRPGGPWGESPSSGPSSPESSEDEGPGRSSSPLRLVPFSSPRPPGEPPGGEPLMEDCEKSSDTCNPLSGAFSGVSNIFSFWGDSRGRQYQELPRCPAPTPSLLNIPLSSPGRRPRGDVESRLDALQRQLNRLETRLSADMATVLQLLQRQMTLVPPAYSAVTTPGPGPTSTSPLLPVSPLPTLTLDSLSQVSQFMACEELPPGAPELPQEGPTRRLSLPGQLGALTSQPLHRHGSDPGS

[2] = Tissue distribution study in rats; type: in vivo
[3] = Excretion of [14C] LIK066-related radioactivity in rats; type: in vivo
P-glycoprotein (P-gp) = P-glycoprotein (P-gp) (Homo sapiens, UniProt P08183); experiment: P-glycoprotein substrate assessment; type: in vitro ADME
P-glycoprotein (P-gp), sequence (P08183 whole entry): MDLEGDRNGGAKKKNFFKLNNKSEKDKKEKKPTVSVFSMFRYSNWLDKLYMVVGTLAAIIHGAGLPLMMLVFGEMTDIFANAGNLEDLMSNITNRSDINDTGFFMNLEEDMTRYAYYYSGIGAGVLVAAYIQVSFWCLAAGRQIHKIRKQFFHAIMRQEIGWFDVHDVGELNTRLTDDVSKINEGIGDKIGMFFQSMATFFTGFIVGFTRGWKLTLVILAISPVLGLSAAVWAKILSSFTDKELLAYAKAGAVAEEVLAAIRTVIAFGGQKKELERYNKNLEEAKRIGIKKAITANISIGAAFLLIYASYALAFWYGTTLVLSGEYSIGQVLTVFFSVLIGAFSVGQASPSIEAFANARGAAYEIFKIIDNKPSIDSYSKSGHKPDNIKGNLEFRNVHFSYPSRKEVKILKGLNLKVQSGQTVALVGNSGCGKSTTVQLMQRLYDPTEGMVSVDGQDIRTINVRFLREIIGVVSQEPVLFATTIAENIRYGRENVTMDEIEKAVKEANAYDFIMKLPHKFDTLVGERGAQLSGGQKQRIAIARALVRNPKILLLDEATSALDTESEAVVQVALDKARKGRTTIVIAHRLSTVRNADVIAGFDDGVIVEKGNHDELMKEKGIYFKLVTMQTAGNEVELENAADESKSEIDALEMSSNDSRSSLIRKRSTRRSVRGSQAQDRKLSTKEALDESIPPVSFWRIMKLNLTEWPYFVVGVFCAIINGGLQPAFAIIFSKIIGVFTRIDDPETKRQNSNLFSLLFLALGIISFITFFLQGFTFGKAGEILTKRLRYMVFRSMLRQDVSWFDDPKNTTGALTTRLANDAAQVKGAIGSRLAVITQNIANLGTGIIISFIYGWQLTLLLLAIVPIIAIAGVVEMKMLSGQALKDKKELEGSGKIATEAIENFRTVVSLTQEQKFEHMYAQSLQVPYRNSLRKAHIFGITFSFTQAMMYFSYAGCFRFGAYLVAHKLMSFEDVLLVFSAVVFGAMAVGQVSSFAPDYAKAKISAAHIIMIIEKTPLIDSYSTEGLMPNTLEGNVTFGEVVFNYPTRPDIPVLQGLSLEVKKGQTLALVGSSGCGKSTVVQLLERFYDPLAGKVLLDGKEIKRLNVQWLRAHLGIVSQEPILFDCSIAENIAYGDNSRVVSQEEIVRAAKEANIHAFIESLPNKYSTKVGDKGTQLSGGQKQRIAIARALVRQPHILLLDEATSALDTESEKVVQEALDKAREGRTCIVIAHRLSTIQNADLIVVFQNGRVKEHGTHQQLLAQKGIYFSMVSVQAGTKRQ

Solubility = type: physicochemical
Permeability = type: in vitro ADME
human hepatocytes = experiment: Clearance pathways in human hepatocytes; type: in vitro ADME
[4] = In vitro pharmacokinetic drug interaction studies; type: in vitro ADME
[5] = Dog pharmacokinetics, tablet vs solution, crossover; type: in vivo; details: single dose of 50 mg/dog, dogs
[6] = Oral toxicity studies in dogs; type: in vivo
[7] = Single and multiple dose studies in healthy volunteers and T2DM patients; type: in vivo, human
[8] = 12 week study in obese patients; type: in vivo, human
[9] = Dose/exposure-response analysis from completed clinical studies; type: in vivo, human
Method: The primary efficacy endpoint for dose/exposure-response analysis for LIK066, from previously completed clinical studies, was body weight loss, and other pharmacodynamic endpoints such as urinary and plasma glucose. The estimated ED50 and ED90 of LIK066 based on once a day dosing were approximately 5 mg and 50 mg, respectively, based on a body weight loss model. The estimated ED50 and ED90 based on other relevant pharmacodynamics endpoints such as urinary and plasma glucose were approximately 3-10 mg and 30-100 mg, respectively. […] Therefore this dose is tested first, with introduction of the 30 mg dose later to assure futility evaluation prior to enrollment of the entire cohort for the study. […] The diarrhea associated with LIK066 could be mitigated by dietary modification such as reduction in carbohydrate intake. Body weight loss is an important factor in therapeutic development for NASH as weight loss through either bariatric surgery or life style modification deters progression of the disease.

[10] = Clinical pharmacokinetics; details: human, in vivo; read-out: pharmacokinetic elimination half-life
[11] = rat, in vivo
[12] = Oral toxicity studies in rats
[13] = once a day dosing, body weight loss model
[14] = urinary and plasma glucose endpoints

CCc1ccc([C@@H]2O[C@H](CO)[C@@H](O)[C@H](O)[C@H]2O)cc1Cc1ccc2c(c1)OCCO2 [LIK066, (2S,3R,4R,5S,6R)-2-(3-((2,3-dihydrobenzo[b][1,4]dioxin-6-yl)methyl)-4-ethylphenyl)-6-(hydroxymethyl)tetrahydro-2H-pyran-3,4,5-triol]
inhibition of SGLT2 (SGLT2): potent inhibitor | inhibition of SGLT1 (SGLT1): potent inhibitor | selectivity against other glucose transporters (GLUTs) [1]: high selectivity | inhibitory hERG activity (hERG): no significant inhibitory hERG activity | distribution to the central nervous system and reproductive organs [2]: relatively low distribution | excretion of [14C] LIK066-related radioactivity [3]: excreted in both urine and feces, mainly as metabolites | P-glycoprotein (P-gp) substrate (P-glycoprotein (P-gp)): is a substrate | solubility (Solubility): good solubility | permeability (Permeability): good permeability | predominant clearance pathway (human hepatocytes): Direct glucuronidation (via the UDP-glucuronosyl transferase (UGT1A9)) | second clearance pathway (followed by) (human hepatocytes): oxidative metabolism (CYP3A4) | potential to act as a perpetrator of pharmacokinetic drug interactions [4]: low potential | pharmacokinetics, tablet vs solution formulations [5]: comparable | NOAEL ([6]; dog, in vivo, oral, read-out: no observed adverse effect level (NOAEL)): 0.5 mg/kg/day | body weight gain ([6]; dogs, at almost all doses): reduced body weight gain | doses not tolerated ([6]; dogs, prolonged periods (≥6 weeks), body weight loss, fecal changes and dehydration): ≥ 10 mg/kg | principal target organs of toxicity ([6]; oral, dogs, up to 13-weeks): gastrointestinal tract, kidney, urinary tract, bone, liver and adrenal glands | safety and tolerability ([7]; healthy volunteers and patients with T2DM): safe and tolerated | pharmacokinetic profile ([7]; human, in vivo): favorable | placebo-adjusted weight loss ([7]; over 2 weeks, healthy subjects and patients with T2DM): up to 3% | glucose AUC after an oral glucose tolerance test (OGTT) ([7]; patients with T2DM): significantly lowered | glucosuria ([7]; single and multiple doses, healthy volunteers and patients with T2DM): induced glucosuria | weight loss ([8]; 150 mg daily dose (qd, b.i.d or tid), obese patients, 12 week treatment): ~6% | weight loss ([8]; 150 mg dose, previous phase 2 study): significant weight loss | dose-limiting toxicity / primary AE ([8]; 150 mg qd, twelve weeks): diarrhea | safety and tolerability ([8]; 150 mg qd, twelve weeks, normoglycemic and dysglycemic subjects / obese patients): generally safe and well tolerated | estimated ED50 [9, 13]: approximately 5 mg | estimated ED90 [9, 13]: ~50 mg | estimated ED50 [9, 14]: 3 to 10 mg | estimated ED90 [9, 14]: 30 to 100 mg | half-life [10]: 10 to 16 h | tolerated dose ([11]; 4 weeks): up to 100 mg/kg | tolerated dose ([11]; 26 weeks): up to 30 mg/kg | principal target organs of toxicity ([12]; oral, rats, up to 26-weeks): gastrointestinal tract, kidney, urinary tract, bone, liver and adrenal glands | NOAEL ([12]; rat, in vivo, oral): 5 mg/kg/day | body weight gain ([12]; rats, at almost all doses): reduced body weight gain
